Earlier results as cited in patent US20080081070A1, “PHARMACEUTICAL FORMULATION WITH ENHANCED SOLUBILITY FOR THE DELIVERY OF CORTICOSTEROIDS” (priority 2006, published 2008).
≈ marks a conversion by molar mass, not a printed value.

Legend:
[1] = animal studies
[2] = system: mild and moderately active Crohn's disease
[3] = not given; remark: listed apart in the source
[4] = oral dosing of radiolabeled drug, humans

**Q.** With `CCC(=O)O[C@]1(C(=O)O)[C@H](C)C[C@H]2[C@@H]3C[C@H](F)C4=CC(=O)C=C[C@]4(C)[C@@]3(F)[C@@H](O)C[C@@]21C` [17-β-carboxylic acid] as the compound, how does the pharmacologic activity [1] read?
**A.** Its pharmacologic activity is “negligible”.

**Q.** Which “excretion of injected radioactivity calculated from whole body data” value ([2]; after three weeks oral treatment, before treatment 28 (21%), p less than 0.05) does the source give for `CCC(=O)O[C@]1(C(=O)SCF)[C@H](C)C[C@H]2[C@@H]3C[C@H](F)C4=CC(=O)C=C[C@]4(C)[C@@]3(F)[C@@H](O)C[C@@]21C` [Fluticasone propionate, S-fluoromethyl-6-α-9-difluoro-11-β-hydroxy-16-α-methyl-3-oxoandrosta-1,4-diene-17-β-carbothioate, 17-propionate] here?
**A.** Its value is 1.4 (0.7%).

**Q.** What about the plasma cortisol values ([2]; three weeks oral treatment) of the same compound?
**A.** The plasma cortisol values was “no changes”.

**Q.** What about the leucocyte scan images ([2]; three weeks oral treatment, twelve patients) of the same compound?
**A.** The leucocyte scan images was “improved (seven patients) or unchanged (five patients)”.

**Q.** And the “solubility in 95% ethanol” value (95% ethanol)?
**A.** Its value is “slightly soluble”.

**Q.** And the “solubility in dimethyl sulfoxide” value (dimethyl sulfoxide)?
**A.** The value was “freely soluble”.

**Q.** And the solubility in dimethyl-formamide (dimethyl-formamide)?
**A.** The solubility in dimethyl-formamide was “freely soluble”.

**Q.** What about the solubility in methanol (methanol) of the same compound?
**A.** Its solubility in methanol is “slightly soluble”.

**Q.** And the solubility in water (water)?
**A.** Its solubility in water is 0.14 µg/mL (≈ 0.28 µM).

**Q.** What about the total blood clearance ([3]; average, predominantly through the liver) of the same compound?
**A.** Its total blood clearance is 1,093 mL/min.

**Q.** What about the absorption [3, 4] of the same compound?
**A.** Its absorption is “low”.

**Q.** And the extraction from plasma [3, 4]?
**A.** The extraction from plasma was “highly extracted”.

**Q.** What about the “oral bioavailability” value [3, 4] of the same compound?
**A.** The value was “negligible”.

**Q.** What does the source list for `CCCC1O[C@@H]2C[C@H]3[C@@H]4CCC5=CC(=O)C=C[C@]5(C)[C@H]4[C@@H](O)C[C@]3(C)[C@]2(C(=O)CO)O1` (stereo partly shown) [budesonide]?
**A.** clinical features of hypercortisolism compared with prednisone (Crohn's disease; clinical studies): fewer; likelihood of maintaining a normal plasma cortisol level compared with prednisone (Crohn's disease; clinical studies): greater likelihood; bone mineral density compared with prednisone (Crohn's disease; two-year study): decreased less
